Type in all cases: in vivo
Assay [1] deals with mouse FSGS model (adriamycin-induced, BALB/c mice). Nature of the assay: Mouse FSGS model: renal histopathology (H&E) and Col-IV immunohistochemistry. The settings on record: days 14 and 28, Citral 200 mg/kg daily by gavage, p<0.01. The procedure:
(§1) A progressive type of mouse FSGS model was used, particularly characterized by EPHLs, a key histopathology index of progression of FSGS, peri-glomerular inflammation, and progressive glomerular hyalinosis/sclerosis. The FSGS model was induced in 8-week-old male BALB/c mice (National Laboratory Animal Center, Taipei, Taiwan) by intravenous injection of a single dose of adriamycin (0.10 mg/10 g body weight) (Pfizer, New York, N.Y.) as described previously. […] Age- and sex-matched BALB/c mice were used as normal controls. Urine samples were collected in metabolic cages on days 3, 7, 14, 21, and 28. Renal cortical tissues and blood samples were collected when the mice were sacrificed and stored appropriately for further analysis. The concentration of urine protein was determined using BCA kits (Pierce, Rockford, Ill.) as described previously and normalized to urine creatinine (Cr) levels measured using kits (Wako Pure Chemical Industries, Osaka, Japan), as described previously. Serum levels of blood urea nitrogen (BUN) and Cr were determined using BUN kits and Cr kits (both from Fuji Dry-Chem Slide, Fuji Film Medical, Tokyo, Japan), as described previously.
(§2) Renal tissues were formalin-fixed, embedded in paraffin, and sections (4 μm) prepared and stained with hematoxylin and eosin (H&E) for renal histopathology as described previously or TUNEL stained for apoptosis as described previously. Renal pathology was examined and renal lesions scored as described previously. For EPHLs and sclerosis, at least 50 glomeruli in sections were examined for each mouse. To detect apoptosis in renal tissues, TUNEL staining was performed using an in situ apoptosis detection kit (Chemicon, Temecula, Calif.) according to the manufacturer's instructions. For immunohistochemistry, methyl Carnoy solution-fixed and paraffin-embedded renal sections were prepared and incubated with goat antibodies against mouse collagen IV (Col-IV) (Southern Biotech, AL) or rabbit antibodies against phosphorylated mouse NF-κB p65 (Cell Signaling Technology, MA), F4/80 (Serotec, Raleigh, N.C.), or CD3 (Serotec), then with horseradish-conjugated rabbit anti-goat IgG antibodies or swine anti-rabbit IgG antibodies (both from Dako, Carpinteria, Calif.). Quantitative image analysis software (Pax-it; Paxcam, VIIIa Park, Ill.) was used to score Col-IV staining and the number of phosphorylated NF-κB p65-, CD3-, F4/80-, or TUNEL-positive cells as described previously.

Assay [2] relates to p47phox, Nrf2, NQO1, HO-1. Nature of the assay: Mouse FSGS model: renal p47phox, nuclear Nrf2, NQO1 (Western blot) and HO-1 (ELISA). Here is the method: A progressive type of mouse FSGS model was used, particularly characterized by EPHLs, a key histopathology index of progression of FSGS, peri-glomerular inflammation, and progressive glomerular hyalinosis/sclerosis. The FSGS model was induced in 8-week-old male BALB/c mice (National Laboratory Animal Center, Taipei, Taiwan) by intravenous injection of a single dose of adriamycin (0.10 mg/10 g body weight) (Pfizer, New York, N.Y.) as described previously. […] Age- and sex-matched BALB/c mice were used as normal controls. Urine samples were collected in metabolic cages on days 3, 7, 14, 21, and 28. Renal cortical tissues and blood samples were collected when the mice were sacrificed and stored appropriately for further analysis. The concentration of urine protein was determined using BCA kits (Pierce, Rockford, Ill.) as described previously and normalized to urine creatinine (Cr) levels measured using kits (Wako Pure Chemical Industries, Osaka, Japan), as described previously. Serum levels of blood urea nitrogen (BUN) and Cr were determined using BUN kits and Cr kits (both from Fuji Dry-Chem Slide, Fuji Film Medical, Tokyo, Japan), as described previously. Cytoplasmic and nuclear proteins from renal tissues were prepared using a kit (Active Motif, Tokyo, Japan) according to the manufacturer's instructions and target proteins detected by immunoblotting using goat antibodies against mouse Nrf2 or p47^phox, (Santa Cruz Biotechnology, Santa Cruz, Calif.) or rabbit antibodies against mouse NQO1 (Abcam), caspase-3, caspase-8, or caspase-9 (all from Cell Signaling Technology, MA) or Bcl2 or Bax (both from Santa Cruz Biotechnology), then with horseradish-conjugated rabbit anti-goat IgG antibodies or goat-anti-rabbit IgG antibodies (both from Santa Cruz Biotechnology) as described previously. Anti-β-actin antibody (Santa Cruz Biotechnology) was used as internal controls for the nuclear and cytosolic target proteins, respectively. Renal HO-1 levels were measured using a commercial ELISA kit (R&D Systems, Minneapolis, Minn.) according to the manufacturer's instructions.
(In general: Immunoblotting shows a protein as a band on a membrane.)

Assay [3] has as its system renal apoptosis; caspase-3, caspase-8, caspase-9, Bax/Bcl-2. The assay is described as follows: Mouse FSGS model: renal apoptosis (TUNEL), caspases, Bax/Bcl-2 ratio. The procedure: as §1, §2
Cytoplasmic and nuclear proteins from renal tissues were prepared using a kit (Active Motif, Tokyo, Japan) according to the manufacturer's instructions and target proteins detected by immunoblotting using goat antibodies against mouse Nrf2 or p47^phox, (Santa Cruz Biotechnology, Santa Cruz, Calif.) or rabbit antibodies against mouse NQO1 (Abcam), caspase-3, caspase-8, or caspase-9 (all from Cell Signaling Technology, MA) or Bcl2 or Bax (both from Santa Cruz Biotechnology), then with horseradish-conjugated rabbit anti-goat IgG antibodies or goat-anti-rabbit IgG antibodies (both from Santa Cruz Biotechnology) as described previously. Anti-β-actin antibody (Santa Cruz Biotechnology) was used as internal controls for the nuclear and cytosolic target proteins, respectively. Renal HO-1 levels were measured using a commercial ELISA kit (R&D Systems, Minneapolis, Minn.) according to the manufacturer's instructions.

Assay [4] has as its system CD3+ T cells, F4/80+ macrophages. Nature of the assay: Mouse FSGS model: renal infiltration of T cells and macrophages (immunohistochemistry). The following applies: days 14 and 28. Here is the method:
as §1, with “Renal cortical tissues and blood samples were collected when the mice were sacrificed and stored appropriately for further analysis.” left out
Renal tissues were formalin-fixed, embedded in paraffin, and sections (4 μm) prepared and stained with hematoxylin and eosin (H&E) for renal histopathology as described previously or TUNEL stained for apoptosis as described previously. Renal pathology was examined and renal lesions scored as described previously. […]

The source of these data is patent US8993637B2 (priority 2013, dated 2015).

For the molecule `CC(C)=CCCC(C)=CC=O` (racemic) [Citral, 3,7-dimethyl-2,6-octadienal], in assay [1] (H&E), the “glomerular EPHLs” value is given as “greatly decreased”, the glomerular hyalinosis/sclerosis result was “greatly decreased” and the peri-glomerular inflammation entry is reported as “greatly decreased”. For the same molecule, in assay [1] (immunohistochemistry), the “renal Col-IV expression” value is reported as “markedly inhibited”. Further, the “decrease of nuclear Nrf2 expression” value in assay [2] (day 14, kidney) is “inhibited at day 14 in FSGS+Citral mice, although not statistically significant”. Besides, in assay [2] (day 28, cytosolic, p<0.01), the “increase of renal p47phox protein levels” value is reported as “inhibited”. Further, in assay [2] (day 28, relative to normal control mice, p<0.01), the “cytosolic levels of NQO1” value is “significantly higher”. In assay [2] (day 28, vs FSGS+vehicle (p<0.005) and normal control mice (p<0.05)), the “nuclear Nrf2 levels” value is listed as “greatly increased”. Besides, the “renal HO-1 levels” value in assay [2] (days 14 and 28, vs FSGS+vehicle mice, p<0.05 or p<0.01) is “significantly elevated”. For the same molecule, the “mature form (p18 fragment) of renal caspase-8” value in assay [3] (FSGS+vehicle vs FSGS+Citral vs normal control mice, data not shown) is recorded as “no detectable difference”. Also, the “renal apoptosis (TUNEL) in the glomerulus” value in assay [3] (day 28, p<0.005) is reported as “significantly inhibited”. In assay [3] (days 14 and 28), the “renal apoptosis (TUNEL) in the renal tubule” value is “significantly inhibited”. The “mature form (p17 fragment) of caspase-3, renal levels” value in assay [3] (days 14 and 28, p<0.01) is listed as “significantly inhibited”. Besides, the “mature form (p37 fragment) of caspase-9, renal levels” value in assay [3] (days 14 and 28, p<0.05) is listed as “suppressed”. For the same molecule, the “peri-glomerular infiltration of macrophages (F4/80+)” value in assay [4] (p<0.005) is listed as “significantly decreased”. Further, in assay [4] (p<0.05), the “renal peri-glomerular infiltration of T cells (CD3+)” value is listed as “markedly inhibited”.
